The results in this text go back to patent publication US20090012140A1, “Preparation of Telmisartan Salts with Improved Solubility” (LEK PHARMACEUTICALS D.D, priority 2004, published 2009).

Structures are written as SMILES.

Series [1] can be described thus: Amount dissolved after 30 minutes at 37° C. (50 mg of compound in 100 ml baker, stirring at 600/min). In kind it is physicochemical. As to conditions: for C30 min: 30 minutes, 37° C., 600/min; for Solubility compared with sodium salt of telmisartan manufactured by lyophilization: comparison in words. On the procedure: (§1) In order to prepare a pharmaceutical composition physical properties were measured. The solubility of the telmisartan of its salt in accordance with our invention surpasses the solubility of known forms of telmisartan, and are above 10 μg/ml in phosphate buffer pH=6.8 and above 50 μg/ml in a physiologically relevant medium if measured as above. […] The salts are also very soluble in water (i.e dissolving approximately 500 mg/mL of Na salt Form 2 produces a very viscous solution, which can hardly be stirred with a magnetic stirrer.

A further series can be described thus: Solubility in water. As to conditions: produces a very viscous solution. In kind it is physicochemical. On the procedure: as §1
[2] abbreviates: medium pH = 1.2, 50 mg in 100 ml.
Setting [3] is: phosphate buffer pH = 6.8, 50 mg in 100 ml.
Setting [4] is: physiologically relevant medium: phosphate buffer pH 6.76 + sodium taurocholate (2.5 mM) + lecitin (0.5 mM).

Turning to `CCCc1nc2c(C)cc(-c3nc4ccccc4n3C)cc2n1Cc1ccc(-c2ccccc2C(=O)[O-])cc1.[Na+]` [Amorphous Na salt of telmisartan, Na Salt of Telmisartan], the C30 min in series [1] (setting [2]) turned out to be 394.6 µg/mL; in series [1] (setting [3]), 29 µg/mL; in series [1] (setting [4]) it was 167.3 µg/mL.

Consider `CCCc1nc2c(C)cc(-c3nc4ccccc4n3C)cc2n1Cc1ccc(-c2ccccc2C(=O)O)cc1` [Amorphous telmisartan, telmisartan], for which the results for the C30 min in series [1] (setting [3]) and in series [1] (setting [4]) were 17.6 µg/mL and 87.5 µg/mL, respectively.

`CCCc1nc2c(C)cc(-c3nc4ccccc4n3C)cc2n1Cc1ccc(-c2ccccc2C(=O)O)cc1` [Form A, telmisartan]: the C30 min was more than 500 µg/mL in series [1] (setting [2]), 0.9 µg/mL in series [1] (setting [3]) and 1.1 µg/mL in series [1] (setting [4]).

For the compound `CCCc1nc2c(C)cc(-c3nc4ccccc4n3C)cc2n1Cc1ccc(-c2ccccc2C(=O)[O-])cc1.[Na+]`, in series [1], the “Solubility compared with sodium salt of telmisartan manufactured by lyophilization” value is reported as “substantially surpasses that manufactured by lyophilization”.

With `CCCc1nc2c(C)cc(-c3nc4ccccc4n3C)cc2n1Cc1ccc(-c2ccccc2C(=O)[O-])cc1.[Na+]` [Na salt Form 2, Crystalline Na Salt of Telmisartane Form 2], the “Amount dissolving in water” value in the series “Solubility in water” was “approximately 500 mg/mL”. In series [1] (listed as crystalline sodium salt of telmisartan), the “Solubility compared with sodium salt of telmisartan manufactured by lyophilization” value is reported as “surpasses that of the sodium salt of telmisartan manufactured by lyophilization”.
